Results published in patent US6355799B1, “Substituted benzene compounds, process for their preparation, and herbicidal and defoliant compositions containing them” (ISK Americas Incorporated, priority 1997, dated 2002).

Legend:
Format in all cases: in vivo
[1] = tested on: green foxtail (Setaria viridis, SETVI); assay: Pre-emerge test, greenhouse herbicide activity screening; settings: rating scale 0-100, 14 days after application
Excerpt: (§1) A standard greenhouse herbicide activity screening system was used to evaluate the herbicidal efficacy and crop safety of these test compounds. Seven broadleaf weed species including redroot pigweed (Amaranthus retroflexus, AMARE, velvetleaf (Abutilon theophrasti, ABUTH), sicklepod (Cassia obtusifolia, CASOB), ivyleaf morningglory (Ipomoea hederacea, IPOHE), lambsquarters (Chenopodium album, CHEAL), common ragweed (Ambrosia artemisizfolia L., AMBEL), and cocklebur (Xanthium strumarium, XANST) were used as test species. Four grass weed species including green foxtail (Setaria viridis, SETVI), barnyardgrass (Echinochloa crus-galli, ECHCG), johnsongrass (Sorghum halepense, SORHA), and large crabgrass (Digitaria sanguinalis, DIGSA) were also used. In addition, three crop species, field corn (Zea mays L., var. Dekalb 535, CORN), soybean (Glycine max L., var. Pella 86, SOY), and is upland rice (Oryza sp., var. Tebonnet, RICE) were included.
(§2) All plants were grown in 10 cm square plastic pots which were filled with a sandy loam soil mix. For pre-emerge tests, seeds were planted one day prior to application of the test compounds. For post-emerge tests, seeds were planted 8-21 days prior to the test to allow emergence and good foliage development prior to application of the test substances. At the time of the post-emerge application, plants of all species were usually at the 2-3 leaf stage of development.
(§3) All test compounds Were dissolved in acetone and applied to the test units in a volume of 187 l /ha. Test materials were applied at rates ranging from 15 g ai/ha to 1000 g ai/ha using a track sprayer equipped with a TJ8001E even flow flat fan spray nozzle. Plants were arranged on a shelf so that the top of the canopy (post-emerge) or top of the soil surface (pre-emerge) was 40-45 cm below the nozzle. Pressurized air was used to force the test solution through the nozzle as it was mechanically advanced (via electrically driven chain drive) over the top of all test plants/pots. This application simulates a typical commercial field herbicide application.
(§4) In the post-emerge test, a commercial non-ionic surfactant was also included (0.25% v/v) to enhance wetting of the leaf surfaces of target plants. Immediately after application, test units of the pre-emerge applications were watered at the soil surface to incorporate the test materials. Subsequently, these test units were bottom-watered. Post-emerge test units were always bottom-watered.
(§5) At 14 days after application of the test materials, phytotoxicity ratings were recorded. A rating scale of 0-100 was used as previously described in Research Methods in Weed Science, 2nd edition, B. Truelove, Ed., Southern Weed Science Society, Auburn University, Auburn, Ala. 1977. Briefly, “0” corresponds to no damage and “100” corresponds to complete death of all plants in the test unit. This scale was used both to determine efficacy against weed species and damage to crop species. Herbicide activity data for various compounds of this invention, which are shown by compound No. in Tables 1-8, are shown in Tables 11 and 12.

[2] = tested on: large crabgrass (Digitaria sanguinalis, DIGSA); assay: as above; settings: rating scale 0-100, 14 days after application
Excerpt: as §1, §2, §3, §4, §5

[3] = tested on: sicklepod (Cassia obtusifolia, CASOB); assay: as above; settings: rating scale 0-100, 14 days after application
Excerpt: as §1, §2, §3, §4, §5

[4] = tested on: lambsquarters (Chenopodium album, CHEAL); assay: as above; settings: rating scale 0-100, 14 days after application
Excerpt: as §1, §2, §3, §4, §5

[5] = tested on: velvetleaf (Abutilon theophrasti, ABUTH); assay: as above; settings: rating scale 0-100, 14 days after application
Excerpt: as §1, §2, §3, §4, §5

[6] = tested on: barnyardgrass (Echinochloa crus-galli, ECHCG); assay: as above; settings: rating scale 0-100, 14 days after application
Excerpt: as §1, §2, §3, §4, §5

[7] = tested on: ivyleaf morningglory (Ipomoea hederacea, IPOHE); assay: as above; settings: rating scale 0-100, 14 days after application
Excerpt: as §1, §2, §3, §4, §5

[8] = tested on: green foxtail (Setaria viridis, SETVI); assay: Post-emerge test, greenhouse herbicide activity screening; settings: rating scale 0-100 (0 no damage, 100 complete death), 14 days after application
Excerpt: as §1, §2, §3, §4, §5

[9] = tested on: large crabgrass (Digitaria sanguinalis, DIGSA); assay: as above; settings: rating scale 0-100 (0 no damage, 100 complete death), 14 days after application
Excerpt: as §1, §2, §3, §4, §5

[10] = tested on: sicklepod (Cassia obtusifolia, CASOB); assay: as above; settings: rating scale 0-100 (0 no damage, 100 complete death), 14 days after application
Excerpt: as §1, §2, §3, §4, §5

[11] = tested on: lambsquarters (Chenopodium album, CHEAL); assay: as above; settings: rating scale 0-100 (0 no damage, 100 complete death), 14 days after application
Excerpt: as §1, §2, §3, §4, §5

[12] = tested on: velvetleaf (Abutilon theophrasti, ABUTH); assay: as above; settings: rating scale 0-100 (0 no damage, 100 complete death), 14 days after application
Excerpt: as §1, §2, §3, §4, §5

[13] = tested on: barnyardgrass (Echinochloa crus-galli, ECHCG); assay: as above; settings: rating scale 0-100 (0 no damage, 100 complete death), 14 days after application
Excerpt: as §1, §2, §3, §4, §5

[14] = tested on: ivyleaf morningglory (Ipomoea hederacea, IPOHE); assay: as above; settings: rating scale 0-100 (0 no damage, 100 complete death), 14 days after application
Excerpt: as §1, §2, §3, §4, §5

[15] = tested on: redroot pigweed (Amaranthus retroflexus, AMARE); assay: as above; settings: rating scale 0-100 (0 no damage, 100 complete death), 14 days after application
Excerpt: as §1, §2, §3, §4, §5

[16] = tested on: redroot pigweed (Amaranthus retroflexus, AMARE); assay: Pre-emerge test, greenhouse herbicide activity screening; settings: rating scale 0-100, 14 days after application
Excerpt: as §1, §2
as §3, with “Test materials were applied at rates ranging from 15 g ai/ha to 1000 g ai/ha using a track sprayer equipped with a TJ8001E even flow flat fan spray nozzle.” left out
as §4, §5

For `CCOC(=O)C(Cl)Cc1c(OC)c(Cl)cc(F)c1-n1c(=O)cc(C(F)(F)F)n(C)c1=O` (single isomer, unassigned) [Compound 14-4, 3-{4-chloro-2-[2-chloro-2-(ethoxycarbonyl)ethyl]-6-fluoro-3-methoxyphenyl}-1-methyl-6-trifluoromethyl-2,4(1H, 3H)-pyrimidinedione], the “Pre-emerge herbicidal activity, phytotoxicity rating SETVI” value ([1]; 63 g ai/ha) was 10, the “Pre-emerge herbicidal activity, phytotoxicity rating SETVI” value ([1]; 250 g ai/ha) was 40 and the “Pre-emerge herbicidal activity, phytotoxicity rating DIGSA” value ([2]; 63 g ai/ha) was 20. The “Pre-emerge herbicidal activity, phytotoxicity rating DIGSA” value ([2]; 250 g ai/ha) was 95, the “Pre-emerge herbicidal activity, phytotoxicity rating CASOB” value ([3]; 63 g ai/ha) was 20 and the “Pre-emerge herbicidal activity, phytotoxicity rating CASOB” value ([3]; 250 g ai/ha) was 20. The “Pre-emerge herbicidal activity, phytotoxicity rating CHEAL” value ([4]; 63 g ai/ha) was 60, the “Pre-emerge herbicidal activity, phytotoxicity rating CHEAL” value ([4]; 250 g ai/ha) was 100 and the “Pre-emerge herbicidal activity, phytotoxicity rating ABUTH” value ([5]; 63 g ai/ha) was 50. For the same compound, the “Pre-emerge herbicidal activity, phytotoxicity rating ABUTH” value ([5]; 250 g ai/ha) was 80, the “Pre-emerge herbicidal activity, phytotoxicity rating ECHCG” value ([6]; 63 g ai/ha) was 0 and the “Pre-emerge herbicidal activity, phytotoxicity rating ECHCG” value ([6]; 250 g ai/ha) was 0. The “Pre-emerge herbicidal activity, phytotoxicity rating IPOHE” value ([7]; 63 g ai/ha) was 0, the “Pre-emerge herbicidal activity, phytotoxicity rating IPOHE” value ([7]; 250 g ai/ha) was 70 and the “Post-emerge Herbicidal Activity, phytotoxicity rating SETVI” value ([8]; Rate 63 g ai/ha) was 30. For the same compound, the “Post-emerge Herbicidal Activity, phytotoxicity rating SETVI” value ([8]; Rate 250 g ai/ha) was 65, the “Post-emerge Herbicidal Activity, phytotoxicity rating DIGSA” value ([9]; Rate 63 g ai/ha) was 75 and the “Post-emerge Herbicidal Activity, phytotoxicity rating DIGSA” value ([9]; Rate 250 g ai/ha) was 95. For the same compound, the “Post-emerge Herbicidal Activity, phytotoxicity rating CASOB” value ([10]; Rate 63 g ai/ha) was 50, the “Post-emerge Herbicidal Activity, phytotoxicity rating CASOB” value ([10]; Rate 250 g ai/ha) was 100 and the “Post-emerge Herbicidal Activity, phytotoxicity rating CHEAL” value ([11]; Rate 63 g ai/ha) was 100. The “Post-emerge Herbicidal Activity, phytotoxicity rating CHEAL” value ([11]; Rate 250 g ai/ha) was 100, the “Post-emerge Herbicidal Activity, phytotoxicity rating ABUTH” value ([12]; Rate 63 g ai/ha) was 80 and the “Post-emerge Herbicidal Activity, phytotoxicity rating ABUTH” value ([12]; Rate 250 g ai/ha) was 100. For the same compound, the “Post-emerge Herbicidal Activity, phytotoxicity rating ECHCG” value ([13]; Rate 63 g ai/ha) was 85, the “Post-emerge Herbicidal Activity, phytotoxicity rating ECHCG” value ([13]; Rate 250 g ai/ha) was 99 and the “Post-emerge Herbicidal Activity, phytotoxicity rating IPOHE” value ([14]; Rate 63 g ai/ha) was 50. The “Post-emerge Herbicidal Activity, phytotoxicity rating IPOHE” value ([14]; Rate 250 g ai/ha) was 60, the “Post-emerge Herbicidal Activity, phytotoxicity rating AMARE” value ([15]; Rate 63 g ai/ha) was 100 and the “Post-emerge Herbicidal Activity, phytotoxicity rating AMARE” value ([15]; Rate 250 g ai/ha) was 100. For the same compound, the “Pre-emerge herbicidal activity, phytotoxicity rating AMARE” value ([16]; 63 g ai/ha) was 90 and the “Pre-emerge herbicidal activity, phytotoxicity rating AMARE” value ([16]; 250 g ai/ha) was 100.
